One data set deals with Alternaria solani. The experiment in a line: Alternaria test (tomato) / protective. Type of data set: in vivo. The following applies: 500 ppm active compound, protective spray, evaluated 7 days after inoculation. As for the experimental part:
Alternaria Test (Tomato)/Protective
Solvent: 49 parts by weight of N,N-dimethylformamide
Emulsifier: 1 part by weight of alkylaryl polyglycol ether
To produce a suitable preparation of active compound, 1 part by weight of active compound is mixed with the stated amounts of solvent and emulsifier, and the concentrate is diluted with water to the desired concentration.
To test for protective activity, young tomato plants are sprayed with the preparation of active compound at the stated application rate. […] The plants then remain at 96% rel. atmospheric humidity and a temperature of 20° C.
Evaluation is carried out 7 days after the inoculation. 0% means an efficacy which corresponds to that of the control, whereas an efficacy of 100% means that no infection is observed.

Another data set relates to Fusarium graminearum. Type of data set: cell-based. The following applies: 50 μM; for % Inhibition of DON/AcDON at 50 μM: 7 days at 28° C.

Read-outs that look alike come from different tables or passages of the source. Marks after values point to notes of the source that are not given here.

On to `CC(C)Cn1cc(-c2ccnc(N)c2)c(-c2ccc(Cl)s2)n1` [Example 76], for which the “logP value of the minor isomer (in parenthesis in column Isomer ratio [d])” value (minor isomer, main value of the example measured by method [a], pH 2.3) is listed as “(1.93)”. Moreover, the log p (pH 2.3) is 2.04^[a]. Further, in the data set with Alternaria solani, the efficacy is reported as 89%.
For `CC(C)Cn1cc(-c2ccnc(N(C(=O)C3CC3)C(=O)C3CC3)c2)c(-c2ccc(Cl)s2)n1` [Example 82], the log p (pH 2.3) is 4.75^[a]. This compound yielded an efficacy in the data set on Alternaria solani of 78%.
Consider `Fc1ccc(-c2n[nH]cc2-c2ccncc2)s1` [Example 105], for which, under “pH 2.7”, the log p is 0.57^[b]. In the data set on Fusarium graminearum, the “% Inhibition of fungal growth at 50 μM” value is given as 0% and the “% Inhibition of DON/AcDON at 50 μM” value is listed as 88%.
As for `CC(C)n1ncc(-c2ccncc2)c1-c1ccc(F)s1` [Example 109], under “pH 2.7”, the log p was 1.51^[b]. For the same compound, in the data set with Fusarium graminearum, the “% Inhibition of fungal growth at 50 μM” value is reported as 49% and the “% Inhibition of DON/AcDON at 50 μM” value was determined as 100%.
Take `CCCc1c(-c2ccncc2)c(-c2sccc2C)nn1C` [Example 165]: under “pH 2.7”, the log p was 1.31^[b] and the “logP value of the minor isomer” value was 1.46^[b]). For the same compound, under “pH 7.8”, the log p was 2.59^[c]; and the “logP value of the minor isomer” value was “(2.79^[c];”. The compound further had an efficacy in the data set with Alternaria solani of 70%.
Take `C=CCNc1nccc(-c2cn(C(C)CC)nc2-c2ccc(Cl)s2)n1` (centres unmarked) [Example 196]: the log p (pH 2.3) is 3.39^[a]. In the data set with Fusarium graminearum, the “% Inhibition of fungal growth at 50 μM” value worked out at 83% and the “% Inhibition of DON/AcDON at 50 μM” value is listed as 99%.
The like results for `CCC(C)Nc1nccc(-c2cn(C(C)CC)nc2-c2ccc(Cl)s2)n1` (centres unmarked) [Example 197] were, in that order, 3.48^[a], 73% and 90%.
Consider `CCC(C)n1nc(-c2ccc(Cl)s2)c(-c2ccncc2)c1Cl` (centres unmarked) [Example 201], for which the log p (pH 2.7) is 3.44^[b]. Besides, in the data set on Fusarium graminearum, the “% Inhibition of fungal growth at 50 μM” value came out at 39% and the “% Inhibition of DON/AcDON at 50 μM” value is listed as 94%. Besides, the efficacy in the data set on Alternaria solani is 78%.
Turning to `CC(C)n1cc(-c2ccncc2)c(-c2ccc(I)s2)n1` [Example 214], the log p (pH 2.7) is 1.89^[b]. Besides, in the data set with Fusarium graminearum, the “% Inhibition of fungal growth at 50 μM” value is given as 89% and the “% Inhibition of DON/AcDON at 50 μM” value was determined as 99%.
With `CCC(C)n1cc(-c2ccnc(NC(=O)OC(C)C)c2)c(-c2ccc(Cl)s2)n1` (centres unmarked) [Example 239], for the setting “pH 2.7”, the log p is 4.33^[b]. This compound also had an efficacy with Alternaria solani of 80%.
In the case of `COCC(=O)Nc1cc(-c2cn(C(C)C)nc2-c2ccc(Cl)s2)ccn1` [Example 244], the log p (pH 2.7) was 3.25^[b]. In addition, in the data set on Fusarium graminearum, the “% Inhibition of fungal growth at 50 μM” value turned out to be 100% and the “% Inhibition of DON/AcDON at 50 μM” value was 99%.
With `CCn1cc(-c2ccnc(NC(=O)N(C)C)c2)c(-c2ccc(Cl)s2)n1` [Example 251], where the note is “pH 2.7”, the log p was 1.72^[b]. In addition, in the data set on Fusarium graminearum, the “% Inhibition of fungal growth at 50 μM” value turned out to be 100% and the “% Inhibition of DON/AcDON at 50 μM” value was determined as 99%.
On to `CC(C)n1cc(-c2ccnc(NC(=O)c3ccccc3)c2)c(-c2ccc(Cl)s2)n1` [Example 260], for which the log p (pH 2.7) was 4.03^[b]. In the data set with Alternaria solani, the efficacy is listed as 80%.
For the compound `CSc1ccc(-c2nn(C(C)C)cc2-c2ccncc2)s1` [Example 294], the log p (pH 2.7) is 1.79^[b]. Also, in the data set with Fusarium graminearum, the “% Inhibition of fungal growth at 50 μM” value turned out to be 92% and the “% Inhibition of DON/AcDON at 50 μM” value was found to be 99%.
Regarding `CC(C)n1cc(-c2ccncc2)c(-c2cccs2)n1` [Example 300], for the setting “pH 2.7”, the log p is 1.27^[b]. For the same compound, in the data set on Fusarium graminearum, the “% Inhibition of fungal growth at 50 μM” value is on record as 100% and the “% Inhibition of DON/AcDON at 50 μM” value stood at 99%. This compound had an efficacy in the data set on Alternaria solani of 95%.
On to `Nc1cc(-c2cn(/C=C/F)nc2-c2ccc(Cl)s2)ccn1` [Example 301], for which the log p (pH 2.7) was 1.59^[b]. Besides, in the data set with Fusarium graminearum, the “% Inhibition of fungal growth at 50 μM” value is on record as 60% and the “% Inhibition of DON/AcDON at 50 μM” value came out at 99%.
`Cn1cc(-c2ccnc(N)c2)c(-c2ccc(Cl)s2)n1` [Example 305]: the log p (pH 2.7) is 1.34^[b]. The efficacy in the data set on Alternaria solani was 70%.
With `CC(C)n1cc(-c2ccnc(N)c2)c(-c2ccc(Cl)s2)n1` [Example 306], the log p (pH 2.7) is 1.78^[b]. Besides, in the data set with Fusarium graminearum, the “% Inhibition of fungal growth at 50 μM” value is 87% and the “% Inhibition of DON/AcDON at 50 μM” value stood at 100%.
For `Cn1cc(-c2ccnc(Cl)c2)c(-c2ccc(Cl)s2)n1` [Example 313], the log p (pH 2.7) was 3.37^[b]. In the data set on Fusarium graminearum, the “% Inhibition of fungal growth at 50 μM” value turned out to be 6% and the “% Inhibition of DON/AcDON at 50 μM” value is 98%.
For the compound `CCn1cc(-c2ccnc(Cl)c2)c(-c2ccc(Cl)s2)n1` [Example 316], where the note is “pH 2.7”, the log p was 3.89^[b]. For the same compound, in the data set with Fusarium graminearum, the “% Inhibition of fungal growth at 50 μM” value was found to be 37% and the “% Inhibition of DON/AcDON at 50 μM” value was 87%.
The like results for `N#CCCn1cc(-c2ccncc2)c(-c2ccc(Cl)s2)n1` [Example 322] were, in that order, 0.98^[b], 0% and 99%.
Regarding `Clc1ccc(Cn2cc(-c3ccncc3)c(-c3ccc(Cl)s3)n2)s1` [Example 323], the log p (pH 2.7) was 2.64^[b]. Besides, in the data set on Fusarium graminearum, the “% Inhibition of fungal growth at 50 μM” value was determined as 6% and the “% Inhibition of DON/AcDON at 50 μM” value is 94%. The efficacy in the data set on Alternaria solani is listed as 78%.
As for `CC1(Cn2cc(-c3ccncc3)c(-c3ccc(Cl)s3)n2)CC1(Cl)Cl` (centres unmarked) [Example 324], the log p (pH 2.7) was 2.71^[b]. Further, in the data set on Fusarium graminearum, the “% Inhibition of fungal growth at 50 μM” value is listed as 0% and the “% Inhibition of DON/AcDON at 50 μM” value was 93%.
As to `CCC(C)n1cc(-c2ccncc2)c(-c2cc3ccsc3s2)n1` (centres unmarked) [Example 328], the log p (pH 2.7) is 2.07^[b]. In addition, in the data set on Fusarium graminearum, the “% Inhibition of fungal growth at 50 μM” value came out at 100% and the “% Inhibition of DON/AcDON at 50 μM” value is given as 98%. Moreover, the efficacy with Alternaria solani is given as 94%.
The like results for `CCn1cc(-c2ccncc2)c(-c2cc3ccsc3s2)n1` [Example 329] were, in that order, 1.57^[b], 85%, 98% and 94%.
For the compound `c1cc(-c2cn(C3CCCC3)nc2-c2cc3ccsc3s2)ccn1` [Example 332], the log p (pH 2.7) was 2.25^[b]. Besides, the efficacy in the data set on Alternaria solani is 94%.
Consider `CC(C)(C)Cn1cc(-c2ccncc2)c(-c2cc3ccsc3s2)n1` [Example 334], for which the log p (pH 2.7) was 2.35^[b]. Moreover, in the data set with Alternaria solani, the efficacy was 78%.
Turning to `N#CCCn1cc(-c2ccncc2)c(-c2cc3ccsc3s2)n1` [Example 338], the log p (pH 2.7) was 1.07^[b]. Also, in the data set on Fusarium graminearum, the “% Inhibition of fungal growth at 50 μM” value is 50% and the “% Inhibition of DON/AcDON at 50 μM” value worked out at 99%.
Turning to `Fc1ccc(-c2nn(Cc3ccc(Cl)s3)cc2-c2ccncc2)s1` [Example 341], the log p (pH 2.7) is 2.34^[b]. In addition, in the data set on Fusarium graminearum, the “% Inhibition of fungal growth at 50 μM” value is recorded as 55% and the “% Inhibition of DON/AcDON at 50 μM” value was 96%.
`N#CCn1cc(-c2ccncc2)c(-c2ccc(Br)s2)n1` [Example 348]: the log p (pH 2.7) was 1.51^[b]. For the same compound, in the data set with Fusarium graminearum, the “% Inhibition of fungal growth at 50 μM” value is 45% and the “% Inhibition of DON/AcDON at 50 μM” value was 99%.
The like results for `CCOCCn1cc(-c2ccncc2)c(-c2ccc(Br)s2)n1` [Example 349] were, in that order, 1.75^[b], 95% and 99%.
Consider `Clc1ccc(Cn2cc(-c3ccncc3)c(-c3ccc(Br)s3)n2)s1` [Example 351], for which the log p (pH 2.7) was 2.69^[b]. In the data set with Fusarium graminearum, the “% Inhibition of fungal growth at 50 μM” value came to 36% and the “% Inhibition of DON/AcDON at 50 μM” value was 99%.
`Fc1cccc(Cn2cc(-c3ccncc3)c(-c3ccc(Br)s3)n2)c1F` [Example 353]: the log p (pH 2.7) was 2.44^[b]. The compound further yielded an efficacy in the data set on Alternaria solani of 78%.
For the compound `Brc1ccc(-c2nn(C3CCCC3)cc2-c2ccncc2)s1` [Example 356], the log p (pH 2.7) is 2.37^[b]. For the same compound, in the data set on Fusarium graminearum, the “% Inhibition of fungal growth at 50 μM” value came to 75% and the “% Inhibition of DON/AcDON at 50 μM” value was found to be 97%.
With `ClCCn1cc(-c2ccncc2)c(-c2cc3ccsc3s2)n1` [Example 370], the log p (pH 2.7) is 1.7^[b]. In addition, in the data set on Fusarium graminearum, the “% Inhibition of fungal growth at 50 μM” value is listed as 70% and the “% Inhibition of DON/AcDON at 50 μM” value amounted to 99%.
The like results for `O=C1OCCC1n1cc(-c2ccncc2)c(-c2cc3ccsc3s2)n1` (centres unmarked) [Example 372] were, in that order, 1.49^[b], 1% and 98%.
Turning to `ClCCn1cc(-c2ccncc2)c(-c2ccc(Br)s2)n1` [Example 393], under “pH 2.7”, the log p was 1.78^[b] and the “logP value of the minor isomer” value is “(1.61)”. In the data set with Fusarium graminearum, the “% Inhibition of fungal growth at 50 μM” value is recorded as 96% and the “% Inhibition of DON/AcDON at 50 μM” value worked out at 99%.
Regarding `CC(C)Cn1cc(-c2ccncc2)c(-c2ccc(C#N)s2)n1` [Example 404], the log p (pH 2.7) was 1.74^[b].
Regarding `CC(C)Cn1ncc(-c2ccncc2)c1-c1ccc(Br)s1` [Example 406], the log p (pH 2.7) was 1.91^[b]. Further, in the data set with Fusarium graminearum, the “% Inhibition of fungal growth at 50 μM” value stood at 0% and the “% Inhibition of DON/AcDON at 50 μM” value is listed as 95%.
With `CC(=O)Nc1cc(-c2cn(C(C)C)nc2-c2ccc(Cl)s2)ccn1` [N-{4-[(3/5)-(5-Chloro-2-thienyl)-1-isopropyl-1H-pyrazol-4-yl]pyridin-2-yl}acetamide], for the setting “pH 2.7”, the “logP (pH2.7)” value was 2.45 and the “logP (pH2.7), minor isomer” value is recorded as 2.22.
For “N-Butyl-5-[4-(pyridin-4-yl)-1H-pyrazol-3-yl]thiophene-2-carboxamide hydrochloride”, for the setting “pH 2.7”, the “logP (pH2.7)” value was determined as 1.47.

These data come from patent US8685974B2 (Bayer CropScience AG, priority 2009, dated 2014).
